The subject of the assay is established type II collagen arthritis in rats. In kind it is in vivo, rat. The text has this: Rat collagen arthritis is an experimental model of polyarthritis that has been widely used for preclinical testing of numerous anti-arthritic agents that are either under preclinical or clinical investigation or are currently used as therapeutics in this disease. The hallmarks of this model are reliable onset and progression of robust, easily measurable polyarticular inflammation, marked cartilage destruction in association with pannus formation, and mild to moderate bone resorption and periosteal bone proliferation.
Intravenous (IV) efficacy of the JNK inhibitor of SEQ ID NO: 172 administered daily (QD) for 14 days (arthritis d1-14) for inhibition of the inflammation (paw swelling), cartilage destruction, and bone resorption that occurs in established type II collagen arthritis in rats was determined in said experimental model. […]
Female Lewis rats with established type II collagen arthritis were treated daily (QD) on arthritis days 1-14 by the intravenous (IV) route with vehicle (NaCl), SEQ ID NO: 172 (0.01, 0.1, 1, or 5 mg/kg), or the reference compound dexamethasone (Dex, 0.05 mg/kg). […] Efficacy evaluation was based on animal body weights, daily ankle caliper measurements, ankle diameter expressed as area under the curve (AUC), terminal hind paw weights, and histopathologic evaluation of ankles and knees of selected groups. […]

Square brackets hold non-standard residues; d marks the D form. Peptide text beside a SMILES is read from it.

For `CC(C)C[C@H](NC(=O)[C@H](CC(N)=O)NC(=O)[C@H](CC(C)C)NC(=O)[C@@H](NC(=O)[C@@H](C)NC(=O)[C@@H]1CCCN1C(=O)[C@H](CCCNC(=N)N)NC(=O)[C@@H](CCCCN)NC(=O)[C@@H]1CCCN1C(=O)[C@H](CCCNC(=N)N)NC(=O)[C@@H](CCCNC(=N)N)NC(=O)[C@H](CCCNC(=N)N)NC(=O)[C@H](CCCNC(=N)N)NC(=O)[C@H](CCC(N)=O)NC(=O)[C@@H](CCCNC(=N)N)NC(=O)[C@H](CCCNC(=N)N)NC(=O)[C@H](CCCCN)NC(=O)[C@H](CCCCN)NC(=O)[C@H](N)CCCNC(=N)N)[C@@H](C)O)C(=O)N[C@H](Cc1ccccc1)C(N)=O` [SEQ ID NO: 172, rKKRrQRRrRPkRPaTLNLf] (H-[dR]KKR[dR]QRR[dR]RP[dK]RP[dA]TLNL[dF]-NH2; N-terminus assumed), the “clinical and histopathology parameters (conclusion)” value (5 mg/kg IV QD 14 days) was “significant beneficial effect on the clinical and histopathology parameters”. Also, under “5 mg/kg IV QD, p<0.05 days 4-12”, the “daily ankle diameter measurements vs disease controls” value is reported as “reduced toward normal”.
